Assay results as given in ChEMBL document CHEMBL5506046, “Discovery of LLC355 as an Autophagy-Tethering Compound for the Degradation of Discoidin Domain Receptor 1” (J Med Chem, 2024).
Values belong to the compound of their own block, whether it stands above or below them. Calls of active or inactive are those of the source. No cut-off for these calls is given here.

Legend:
[1] = biological target: T1, LC3/Epithelial discoidin domain-containing receptor 1 (Homo sapiens, UniProt Q08345+Q9BXW4+Q9GZQ8+Q9H492); test: Autophagosome tethering activity at DDR1 in human NCI-H23 cells assessed as protein degradation at 0.3 uM measured after 24 hrs by immunoblotting analysis relative to control; assay type: cell-based
[2] = biological target: T1, LC3/Epithelial discoidin domain-containing receptor 1; test: Autophagosome tethering activity at DDR1 in human NCI-H23 cells assessed as induction of protein degradation at 10 uM incubated for 6 hrs by TMT-based global proteomic profiling analysis; assay type: cell-based
[3] = Tmax in Sprague-Dawley rat at 2 mg/kg, iv measured up to 24 hrs by LC-MS/MS analysis; assay type: ADME, organism-based; details: in vivo
[4] = biological target: T1, LC3/Epithelial discoidin domain-containing receptor 1; test: Autophagosome tethering activity at DDR1 in human MIA PaCa-2 cells assessed as induction of protein degradation at 100 to 1000 nM measured after 24 hrs by immunoblotting analysis; assay type: cell-based; details: dose 100-1000 nM
[5] = biological target: T1, LC3/Epithelial discoidin domain-containing receptor 1; test: Autophagosome tethering activity at DDR1 in human NCI-H23 cells assessed as induction of protein degradation at 1 uM pretreated for 24 hrs followed by medium replacement with compound-free medium measured for 12 hrs by Western blot analysis; assay type: cell-based
NCI-H23 [6] = test: Inhibition of cell invasion in human NCI-H23 cells at 0.3 uM incubated for 24 hrs by transwell assay; assay type: functional, cell-based
[7] = biological target: T1, LC3/Epithelial discoidin domain-containing receptor 1; test: Autophagosome tethering activity at DDR1 in human NCI-H23 cells assessed as induction of protein degradation at 1 uM measured for 1 to 24 hrs in presence of cycloheximide by immunoblotting analysis; assay type: cell-based; details: time 1-24 hrs
[8] = biological target: T1, LC3/Epithelial discoidin domain-containing receptor 1; test: Autophagosome tethering activity at DDR1 in human NCI-H23 cells assessed as induction of protein degradation at 1 uM by immunoblotting analysis; assay type: cell-based; details: time 1-24 hrs, TDE = time-dependent effect
NCI-H23 [9] = test: Effect on DDR1 mRNA level in human NCI-H23 cells at 0.3 to 1 uM incubated for 24 hrs by qRT-PCR analysis; assay type: functional, cell-based; details: dose 0.3-1 µM
NCI-H23 [10] = test: Downregulation of RBM3 expression in human NCI-H23 cells at 10 uM incubated for 6 hrs by Western blot analysis; assay type: functional, cell-based
NCI-H23 [11] = test: Downregulation of EXO1 expression in human NCI-H23 cells at 10 uM incubated for 6 hrs by Western blot analysis; assay type: functional, cell-based
NCI-H23 [12] = test: Downregulation of LIPA expression in human NCI-H23 cells at 10 uM incubated for 6 hrs by Western blot analysis; assay type: functional, cell-based
[13] = Toxicity in Sprague-Dawley rat at 10 mg/kg, po or 2 mg/kg, iv measured up to 24 hrs by LC-MS/MS analysis; assay type: organism-based; details: in vivo
NCI-H23 [14] = test: Inhibition of cell migration in human NCI-H23 cells at 0.3 uM incubated for 24 hrs by transwell assay; assay type: functional, cell-based
[15] = biological target: T1, LC3/Epithelial discoidin domain-containing receptor 1; test: Autophagosome tethering activity at DDR1 in human NCI-H23 cells assessed as induction of protein degradation at 1 uM measured for >48 hrs by Western blot analysis; assay type: cell-based
[16] = Cmax in Sprague-Dawley rat at 10 mg/kg, po measured up to 24 hrs by LC-MS/MS analysis; assay type: ADME, organism-based; details: in vivo
NCI-H23 [17] = test: Downregulation of BNIP3 expression in human NCI-H23 cells at 10 uM incubated for 6 hrs by Western blot analysis; assay type: functional, cell-based
NCI-H23 [18] = test: Downregulation of CDCA7 expression in human NCI-H23 cells at 10 uM incubated for 6 hrs by Western blot analysis; assay type: functional, cell-based
[19] = Toxicity in Sprague-Dawley rat assessed as drug tolerance at 10 mg/kg, po or 2 mg/kg, iv measured up to 24 hrs by LC-MS/MS analysis; assay type: organism-based; details: in vivo
NCI-H23 [20] = test: Induction of apoptosis in human NCI-H23 cells assessed as increase in cleaved PARP level at 1 uM incubated for 24 hrs by Western blot analysis; assay type: functional, cell-based
[21] = Tmax in Sprague-Dawley rat at 10 mg/kg, po measured up to 24 hrs by LC-MS/MS analysis; assay type: ADME, organism-based; details: in vivo
[22] = Half life in Sprague-Dawley rat at 2 mg/kg, iv measured up to 24 hrs by LC-MS/MS analysis; assay type: ADME, organism-based; details: in vivo
NCI-H23 [23] = test: Downregulation of GOLM1 expression in human NCI-H23 cells at 10 uM incubated for 6 hrs by Western blot analysis; assay type: functional, cell-based
[24] = Half life in Sprague-Dawley rat at 10 mg/kg, po measured up to 24 hrs by LC-MS/MS analysis; assay type: ADME, organism-based; details: in vivo
[25] = biological target: T1, LC3/Epithelial discoidin domain-containing receptor 1; test: Autophagosome tethering activity at DDR1 in chloroquine-treated human NCI-H23 cells assessed as induction of protein degradation at 1 uM incubated for 12 hrs by Western blot analysis; assay type: cell-based
NCI-H23 [26] = test: Induction of apoptosis in human NCI-H23 cells assessed as increase in cleaved PARP level at 0.3 uM incubated for 24 hrs by Western blot analysis; assay type: functional, cell-based
[27] = biological target: T1, LC3/Epithelial discoidin domain-containing receptor 1; test: Autophagosome tethering activity at DDR1 in human PANC-1 cells assessed as induction of protein degradation at 100 to 1000 nM measured after 24 hrs by immunoblotting analysis; assay type: cell-based; details: dose 100-1000 nM
[28] = biological target: LC3/Discoidin domain-containing receptor 2 (Homo sapiens) (UniProt Q16832+Q9BXW4+Q9GZQ8+Q9H492); test: Autophagosome tethering activity at DDR2 in human NCI-H23 cells assessed as induction of protein degradation at 100 to 1000 nM incubated for 24 hrs by immunoblotting analysis; assay type: cell-based; details: dose 100-1000 nM
NCI-H23 [29] = test: Downregulation of REEP3 expression in human NCI-H23 cells at 10 uM incubated for 6 hrs by Western blot analysis; assay type: functional, cell-based
[30] = biological target: T1, LC3/Epithelial discoidin domain-containing receptor 1; test: Autophagosome tethering activity at DDR1 in bafilomycin A1-treated human NCI-H23 cells assessed as induction of protein degradation at 1 uM incubated for 12 hrs by Western blot analysis; assay type: cell-based
[31] = biological target: T1, LC3/Epithelial discoidin domain-containing receptor 1; test: Autophagosome tethering activity at DDR1 in rapamycin-treated human NCI-H23 cells assessed as induction of protein degradation at 0.3 uM incubated for 12 hrs by Western blot analysis; assay type: cell-based
[32] = AUC(0 to t) in Sprague-Dawley rat at 10 mg/kg, po measured up to 24 hrs by LC-MS/MS analysis; assay type: ADME, organism-based; details: in vivo
NCI-H23 [33] = test: Downregulation of PPIC expression in human NCI-H23 cells at 10 uM incubated for 6 hrs by Western blot analysis; assay type: functional, cell-based
[34] = Cmax in Sprague-Dawley rat at 2 mg/kg, iv measured up to 24 hrs by LC-MS/MS analysis; assay type: ADME, organism-based; details: in vivo
NCI-H23 [35] = test: Downregulation of CDK4 expression in human NCI-H23 cells at 10 uM incubated for 6 hrs by Western blot analysis; assay type: functional, cell-based
[36] = biological target: T1, LC3/Epithelial discoidin domain-containing receptor 1; test: Autophagosome tethering activity at DDR1 in human NCI-H23 cells assessed as induction of protein degradation incubated for 12 hrs by immunoblotting analysis; assay type: cell-based
NCI-H23 [37] = test: Inhibition of tumorigenicity in human NCI-H23 cells at 0.1 to 1 uM incubated for 10 days by colony formation assay; assay type: functional, cell-based; details: dose 0.1-1 µM, time 10.0 day
[38] = AUC(0 to t) in Sprague-Dawley rat at 2 mg/kg, iv measured up to 24 hrs by LC-MS/MS analysis; assay type: ADME, organism-based; details: in vivo
[39] = biological target: T1, LC3/Epithelial discoidin domain-containing receptor 1; test: Autophagosome tethering activity at DDR1 in human NCI-H23 cells assessed as induction of protein degradation at 10 uM incubated for 6 hrs by Western blot analysis; assay type: cell-based
[40] = Oral bioavailability in Sprague-Dawley rat at 10 mg/kg measured up to 24 hrs by LC-MS/MS analysis; assay type: ADME, organism-based; details: in vivo
[41] = Clearance in Sprague-Dawley rat at 2 mg/kg, iv measured up to 24 hrs by LC-MS/MS analysis; assay type: ADME, organism-based; details: in vivo
NCI-H23 [42] = test: Inhibition of cell invasion in human NCI-H23 cells at 1 uM incubated for 24 hrs by transwell assay; assay type: functional, cell-based
NCI-H23 [43] = test: Inhibition of tumorigenicity in human NCI-H23 cells at 1 uM incubated for 10 days by colony formation assay; assay type: functional, cell-based; details: time 10.0 day
NCI-H23 [44] = test: Inhibition of cell migration in human NCI-H23 cells at 1 uM incubated for 24 hrs by transwell assay; assay type: functional, cell-based

SMILES: CCc1ccc(C(=O)Nc2cc(CN3CCN(CCOCCOCCOCC(=O)NCCCN(C(=O)c4ccc(C)cc4)[C@@H](c4nc5cc(Cl)ccc5c(=O)n4Cc4ccccc4)C(C)C)CC3)cc(C(F)(F)F)c2)cc1C#Cc1cnc2ccnn2c1
Activity [1]: 0%

SMILES: CCc1ccc(C(=O)Nc2cc(CN3CCN(CCOCCOCC(=O)NCCCN(C(=O)c4ccc(C)cc4)[C@@H](c4nc5cc(Cl)ccc5c(=O)n4Cc4ccccc4)C(C)C)CC3)cc(C(F)(F)F)c2)cc1C#Cc1cnc2ccnn2c1
Activity [1]: 0%

SMILES: CCc1ccc(C(=O)Nc2cc(CN3CCN(C)CC3)cc(C(F)(F)F)c2)cc1C#Cc1cnc2ccnn2c1
inhibition (NCI-H23 [42]): inactive
inhibition (NCI-H23 [43]): inactive
inhibition (NCI-H23 [44]): inactive

SMILES: CCc1ccc(C(=O)Nc2cc(CN3CCN(CCCCCCCCCC(=O)NCCCN(C(=O)c4ccc(C)cc4)[C@@H](c4nc5cc(Cl)ccc5c(=O)n4Cc4ccccc4)C(C)C)CC3)cc(C(F)(F)F)c2)cc1C#Cc1cnc2ccnn2c1
Activity [1]: 0%

More lines, main results first:

Activity [1]: 17%
SMILES: CCc1ccc(C(=O)Nc2cc(CN3CCN(C(=O)CCCNC(=O)COc4c(Br)cc(/C=C5\C(=O)Nc6ccc(I)cc65)cc4Br)CC3)cc(C(F)(F)F)c2)cc1C#Cc1cnc2ccnn2c1

Activity [1]: 4%
SMILES: CCc1ccc(C(=O)Nc2cc(CN3CCN(C(=O)COc4c(Br)cc(/C=C5\C(=O)Nc6ccc(I)cc65)cc4Br)CC3)cc(C(F)(F)F)c2)cc1C#Cc1cnc2ccnn2c1

Activity [2]: Active
Tmax [3]: 4.8 min
Activity [4]: Active
Activity [5]: Active
Activity [7]: inactive
Activity [8]: Tde
Activity [1]: 40%
Activity [15]: Active
Cmax [16]: 226 ng/mL
Tmax [21]: 3.33 h
half-life [22]: 191 min
half-life [24]: 239 min
Activity [25]: inactive
Activity [27]: Active
Activity [28]: inactive
Activity [30]: inactive
Activity [31]: Active
AUC(0-t) at 24 h [32]: 1150 ng·h/mL
Cmax [34]: 27000 ng/mL
DC50 [36]: 151 nM
Activity ([36]; dose 1-10000 nM): Dose-Dependent Effect
AUC(0-t) at 24 h [38]: 30100 ng·h/mL
Activity [39]: Active
bioavailability [40]: 0.77%
clearance [41]: 1.11 mL/min/kg
SMILES: CCc1ccc(C(=O)Nc2cc(CN3CCN(CCOCC(=O)NCCCN(C(=O)c4ccc(C)cc4)[C@@H](c4nc5cc(Cl)ccc5c(=O)n4Cc4ccccc4)C(C)C)CC3)cc(C(F)(F)F)c2)cc1C#Cc1cnc2ccnn2c1
inhibition (NCI-H23 [6]): Active
Activity (NCI-H23 [9]): inactive
Activity (NCI-H23 [10]): Active
Activity (NCI-H23 [11]): Active
Activity (NCI-H23 [12]): Active
Activity [13]: Non-Toxic
inhibition (NCI-H23 [14]): Active
Activity (NCI-H23 [17]): Active
Activity (NCI-H23 [18]): Active
Activity [19]: Non-Toxic
Activity (NCI-H23 [20]): Active
Activity (NCI-H23 [23]): Active
Activity (NCI-H23 [26]): inactive
Activity (NCI-H23 [29]): Active
Activity (NCI-H23 [33]): Active
Activity (NCI-H23 [35]): Active
inhibition (NCI-H23 [37]): Active

Activity [1]: 4%
SMILES: CCc1ccc(C(=O)Nc2cc(CN3CCN(CC(=O)NCCCN(C(=O)c4ccc(C)cc4)[C@@H](c4nc5cc(Cl)ccc5c(=O)n4Cc4ccccc4)C(C)C)CC3)cc(C(F)(F)F)c2)cc1C#Cc1cnc2ccnn2c1

Activity [1]: 9%
SMILES: CCc1ccc(C(=O)Nc2cc(CN3CCN(C(=O)COCCOCCNC(=O)COc4c(Br)cc(/C=C5\C(=O)Nc6ccc(I)cc65)cc4Br)CC3)cc(C(F)(F)F)c2)cc1C#Cc1cnc2ccnn2c1
